Results published in ChEMBL document CHEMBL1932949, “Novel indoleamine 2,3-dioxygenase-1 inhibitors from a multistep in silico screen” (Bioorg Med Chem, 2012).

Target: T1, Indoleamine 2,3-dioxygenase 1 (Homo sapiens, UniProt P14902)
Details: at 200 µM
Target sequence in this assay (P14902 whole entry, looked up): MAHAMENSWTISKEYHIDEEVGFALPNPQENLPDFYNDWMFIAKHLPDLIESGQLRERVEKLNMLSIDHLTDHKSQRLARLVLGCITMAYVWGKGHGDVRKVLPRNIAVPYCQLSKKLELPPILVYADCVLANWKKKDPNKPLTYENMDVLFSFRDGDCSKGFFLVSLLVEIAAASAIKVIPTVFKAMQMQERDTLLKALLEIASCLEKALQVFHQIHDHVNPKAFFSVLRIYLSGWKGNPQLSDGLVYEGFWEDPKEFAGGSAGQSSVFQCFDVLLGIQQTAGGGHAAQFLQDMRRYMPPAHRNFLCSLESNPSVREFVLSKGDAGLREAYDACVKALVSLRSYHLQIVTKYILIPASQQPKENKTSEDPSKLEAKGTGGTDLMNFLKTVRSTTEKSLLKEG
Description: Inhibition of His-tagged recombinant human IDO1 expressed in Escherichia coli using tryptophan as substrate at 200 uM by spectrophotometric analysis
For `N/C(=N\OC(=O)c1ccccc1Cl)c1cccc(CS(=O)(=O)c2ccc(Cl)cc2)c1`, the inhibition was 70%.
Work on `OC1(c2ccc(Cl)cc2)CCN(Cn2nnc3ccccc32)CC1` yielded an inhibition of 0%.
With `Cc1cc2nnc(/C(N)=N/O)c(C)n2n1` the inhibition was 0%.
In the case of `O=c1nc2sccn2c2ncccc12`, the inhibition is reported as 0%.
`N/C(=N/OC(=O)c1cc2ccccc2oc1=O)c1ccc(Oc2ccc(C(F)(F)F)cc2[N+](=O)[O-])cc1` showed an inhibition of 70%.
With `O=c1c2ccccc2nc2ccccn12` the inhibition was 0%.
In the case of `Cn1c(S)nnc1-c1ccc(Cl)cc1`, the inhibition is reported as 0%.
Compound `O=c1[nH]nc2n1-c1ccccc1SC2` has an inhibition of 0%.
In the case of `CN(C)CCCNc1cccc(Cl)c1C#N`, the inhibition is reported as 0%.
For `Cc1nnsc1C(=O)O/N=C(/N)COc1ccc(C2SCCS2)cc1`, the inhibition was 70%.
For `N/C(=N\OS(=O)(=O)c1ccc(Cl)cc1)c1ccc(C(F)(F)F)cc1`, the inhibition was 0%.
For `S=C1N2CCN=C2SC2=NCCN12`, the inhibition was 0%.
With `Nc1ccc2c(c1)N1CCN=C1S2` the inhibition was 70%.
`CCOC(=O)N1CCN(CC(O)Cn2c(=O)c3c(ncn3C)n(C)c2=O)CC1` (stereo not given) gave an inhibition of 0%.
With `O[C@@H](CNCCNc1nccc(C(F)(F)F)n1)CSc1ccc(F)cc1` the inhibition was 0%.
Work on `CN1CCN(C(=O)c2nccnc2C(=O)O)CC1` yielded an inhibition of 0%.
`Sc1nnc2nnc3ccccc3n12` showed an inhibition of 0%.
`N/C(CS(=O)(=O)c1ccccc1)=N\O` showed an inhibition of 0%.

Target: T1, Indoleamine 2,3-dioxygenase 1
Test: Inhibition of His-tagged recombinant human IDO1 expressed in Escherichia coli using tryptophan as substrate by Ehrlich's method
Details: not given
Target sequence in this assay (P14902 whole entry): as the sequence (P14902 whole entry, looked up) above
`NC(=NOC(=O)c1ccccc1Cl)c1cccc(CS(=O)(=O)c2ccc(Cl)cc2)c1` showed an IC50 of 60 µM.
Compound `Cc1nnsc1C(=O)O/N=C(/N)COc1ccc(C2SCCS2)cc1` has an IC50 of 50 µM.
Compound `N=C(NOC(=O)c1cc2ccccc2oc1=O)c1ccc(Oc2ccc(C(F)(F)F)cc2[N+](=O)[O-])cc1` has an IC50 of 20 µM.

Target: T1, Indoleamine 2,3-dioxygenase 1
Test: Inhibition of IDO1
Details: not given
Target sequence in this assay (P14902 whole entry): as the sequence (P14902 whole entry, looked up) above
Compound `Cc1[nH]ccc2c1[nH]c1cc(=O)ccc12` [HARMOL] has an IC50 of 2000 µM.

Target: T1, Indoleamine 2,3-dioxygenase 1
Test: Inhibition of His-tagged recombinant human IDO1 expressed in Escherichia coli using tryptophan as substrate by HPLC analysis
Details: not given
Target sequence in this assay (P14902 whole entry): as the sequence (P14902 whole entry, looked up) above
For `Nc1ccc2c(c1)N1CCN=C1S2`, the IC50 was 50 µM.

Tested on: not listed separately
Test: Dissociation constant, pKa of the compound
Format: physicochemical
Details: not given
Work on `CSC(=N)N` yielded a pKa of 9.83.

Target: T1, Indoleamine 2,3-dioxygenase 1
Test: Inhibition of His-tagged recombinant human IDO1 expressed in Escherichia coli using tryptophan as substrate by spectrophotometric analysis
Details: not given
Target sequence in this assay (P14902 whole entry): as the sequence (P14902 whole entry, looked up) above
`O=C(O)c1cc2ccccc2cc1O` showed an IC50 of 1000 µM.
`Nc1cc2ccccc2cc1C(=O)O` showed an IC50 of 15 µM.
In the case of `COC(=O)c1cc2ccccc2cc1N`, the IC50 is reported as 460 µM.
Work on `Nc1cc2ccccc2cc1CO` yielded an IC50 of 190 µM.
`c1ccc2c(c1)[nH]c1cnccc12` [NORHARMANE] showed an IC50 of 90 µM.

Target: T1, Indoleamine 2,3-dioxygenase 1
Test: Inhibition of His-tagged recombinant human IDO1 expressed in Escherichia coli using tryptophan as substrate at 100 uM by spectrophotometric analysis
Details: not given
Target sequence in this assay (P14902 whole entry, looked up): as above
Work on `Nc1cc2ccccc2cc1C(=O)O` yielded an inhibition of 74%.
